According to the NIST ThermoML archive (doi:10.1016/j.tca.2018.01.023):
± gives the expanded uncertainty stated by the source.

Columns and labels:
[1] = Crystal; for molar entropy: 101.33 kPa, Small sample (50 mg) DSC
[2] = Molar enthalpy of transition or fusion; settings: Crystal; DSC

[Ca+2].[O]=[Mo](=[O])([O-])[O-] [calcium molybdate(VI)]
[1]
Settings | Normal melting temperature [°C] | molar entropy [J/K/mol]
298.15 K | – | 122 ± 7.8
310 K | – | 126.5 ± 8.1
315 K | – | 128.4 ± 8.2
320 K | – | 130.3 ± 8.3
325 K | – | 132.1 ± 8.4
330 K | – | 133.9 ± 8.5
335 K | – | 135.7 ± 8.6
340 K | – | 137.5 ± 8.8
345 K | – | 139.3 ± 8.9
350 K | – | 141 ± 9
355 K | – | 142.8 ± 9.1
360 K | – | 144.5 ± 9.2
365 K | – | 146.2 ± 9.3
370 K | – | 147.9 ± 9.4
375 K | – | 149.6 ± 9.5
380 K | – | 151.2 ± 9.6
385 K | – | 152.9 ± 9.7
390 K | – | 154.5 ± 9.8
395 K | – | 156.1 ± 9.9
400 K | – | 157.7 ± 10
410 K | – | 160.9 ± 10
420 K | – | 164 ± 10
430 K | – | 167.1 ± 11
440 K | – | 170.1 ± 11
450 K | – | 173.1 ± 11
460 K | – | 176 ± 11
470 K | – | 178.8 ± 11
480 K | – | 181.7 ± 12
490 K | – | 184.5 ± 12
500 K | – | 187.2 ± 12
510 K | – | 189.9 ± 12
520 K | – | 192.6 ± 12
530 K | – | 195.2 ± 12
540 K | – | 197.8 ± 13
550 K | – | 200.3 ± 13
560 K | – | 202.8 ± 13
570 K | – | 205.3 ± 13
580 K | – | 207.7 ± 13
590 K | – | 210.1 ± 13
600 K | – | 212.5 ± 14
620 K | – | 217.2 ± 14
640 K | – | 221.7 ± 14
660 K | – | 226.1 ± 14
680 K | – | 230.4 ± 15
700 K | – | 234.6 ± 15
720 K | – | 238.7 ± 15
740 K | – | 242.8 ± 16
760 K | – | 246.7 ± 16
766 K | – | 247.8 ± 16
DTA | 1477 ± 8 | –

Settings | Molar enthalpy of transition or fusion [kcal/mol]
[2] | 24.4 ± 2.87
